One data set relates to HCT-116 cells. Description: MTT cell viability (cytotoxicity) assay in HCT-116 cells. In kind it is cell-based. The conditions noted are these: Homo sapiens, 72 hours incubation, highest concentration 5 μM, read-out: IC50 (reduced cell viability). The protocol: MTT Dye Solution: 5 mg/mL MTT dye (Sigma #M2128) in sterile PBS, filter sterilized, stored at 4° C. in a dark bottle no longer than 1 month.
Lysis Buffer: 50% N,N-dimethyl formamide (Aldich #31,993-7) in dH20, 20% w/v lauryl sulfate (added with stirring at 37° C.) (Sigma #L4509), adjusted pH to 4.7 with 2.5% of 80% acetic acid (Fisher #A490-212) and 2.5% 1 N HCl (Spectrum #HY105).
Supplemented RPMI media: 500 mL RPMI (Cellgro #10-040-CV), 10% FBS (Cellgro #35-011CV) and 1% Sodium Bicarbonate solution (Cellgro @35-035-CI), 1% Antibotic Solution (100× stock; Cellgro #30-004CI).
HCT-116 cells were purchased from ATTC (#CCL-247).
Background: No cells, Totals: Cells treated with DMSO only
96-well tissue culture-treated flat bottom plates (Costar #3595) were plated with 4000 trypsinized cells in 100 μL/well and incubated overnight. 100× stock concentrations of compounds were prepared in DMSO and serially diluted two-fold in DMSO in a 96-well polypropylene v-bottom plate (Costar #3363). 5 μL of DMSO dilutions were then added to 45 μL supplemented RPMI, and 10 μL/well of this mixture were added to plates containing HCT-116 cells. The highest concentration of compounds was 5 μM. Plates were incubated for 72 hours at 37° C. in an incubator (5% CO2).
After incubation, 20 μL of MTT solution were added to each well and incubated at 37° C. for 1.5 hour. 100 μL lysis buffer was then added and plates were incubated for 48 hours at 37° C. Cell viability was then recorded by absorbance at 595 nm using a Biorad Benchmark Microplate Reader. The fraction of dead cells was determined by Fraction of Dead cells=Absorbance of sample well−Avg(no cell control)/Avg(Absorbance of DMSO only Control)−Avg(no cell control).

The nature of data set [1]: In vitro reaction of SNS-595 with pooled human liver microsomes (product identification). In kind it is in vitro ADME. The note with it: for product formed from SNS-595 in liver microsomes: human liver microsomes 1 mg/mL, 10 or 100 μM SNS-595, 60 min, 37° C., NADPH. The protocol: The in vitro production of N-Desmethyl SNS-595 from SNS-595 was monitored as described herein. The pooled Human Liver Microsomes were obtained from BD Gentest and NADPH was obtained from Sigma.
The in vitro reactions were performed (a) in the presence of NADPH as a cofactor and (b) in the absence of NADPH to identify any SNS-595 derivatives generated by cofactor independent mechanisms.
The reaction mixture constituted 100 mM Sodium Phosphate buffer, pH 7.4, containing 3.3 mM MgCl2, 1 mg/mL liver microsomal protein, 10 or 100 μM SNS-595, and 1 mM NADPH for reaction with NADPH. In both the NADPH plus and minus reactions, SNS-595 was added to the reaction mixture and allowed to equilibrate to 37° C. for 10 minutes before starting the reaction by adding NADPH or an equivalent volume of buffer. Reactions were performed in a volume of 1 mL in 2 mL 96-well polypropylene assay blocks. The reaction was stopped by adding an equal volume of acetonitrile at both 0 and 60 minutes after initiating the reaction. Samples were placed on ice until centrifugation at 4100 g for 10 minutes to remove proteins for subsequent analysis.
SNS-595 and the reaction products were identified on an API 4000 mass spectrometer coupled to a turbo electro spray ionization source. Prior to MS analysis chromatography was performed to achieve separation of the reaction precuts (N-desmethyl-SNS-595 had the […] SNS-595). The HPLC system consisted of an Agilent 1100 binary pump and single wavelength UV/Vis as a detector, and a Phenomenex Synergi Hydro-RP column (150×2 mm, 4 micron, 80 Å particle size). Following column separation, UV spectra were collected at 350 nm before mass spectral analysis. Mass spectral identification of the reaction products was done using a series of three experiments; MS full scan, product ion scans on all reaction products identified in the MS full scan analysis as well as multiple reaction monitoring (MRM) or product ion scans on theoretically possible reaction products. […]

pIC50: −log10 of the molar value.

On to `CN[C@H]1CN(c2ccc3c(=O)c(C(=O)O)cn(-c4nccs4)c3n2)C[C@@H]1OC` [SNS-595, (+)-1,4-dihydro-7-[(3S,4S)-3-methoxy-4-(methylamino)-1-pyrrolidinyl]-4-oxo-1-(2-thiazolyl)-1,8-naphthyridine-3-carboxylic acid], for which, in the data set on HCT-116 cells, the negative-log IC50 (pIC50) is 6.37.

`CN[C@H]1CN(c2ccc3c(=O)c(C(=O)O)cn(-c4nccs4)c3n2)C[C@@H]1O` [O-desmethyl-SNS-595, (+)-1,4-dihydro-7-[(3S,4S)-3-hydroxy-4-methylamino-1-pyrrolidinyl]-4-oxo-1-(2-thiazolyl)-1,8-naphthyridine-3-carboxylic acid]: in the data set on HCT-116 cells, the pIC50 is below 5.30. Besides, the “product formed from SNS-595 in liver microsomes” value in data set [1] was “second product formed”.

In the case of `CO[C@H]1CN(c2ccc3c(=O)c(C(=O)O)cn(-c4nccs4)c3n2)C[C@@H]1N` [N-desmethyl-SNS-595, (+)-1,4-dihydro-7-[(3S,4S)-3-methoxy-4-amino-1-pyrrolidinyl]-4-oxo-1-(2-thiazolyl)-1,8-naphthyridine-3-carboxylic acid], the negative-log IC50 (pIC50) in the data set with HCT-116 cells was 6.29. For the same molecule, in data set [1], the “product formed from SNS-595 in liver microsomes” value was “predominant product formed”. In addition, the “product detectable after incubation of SNS-595 in liver microsomes” value in data set [1] (human liver microsomes, 10 μM incubation concentration of SNS-595) is recorded as “only product detectable”.

The values above are taken from patent publication US9676774B2, “Compounds and compositions for treatment of cancer” (Sunesis Pharmaceuticals, Inc., priority 2006, dated 2017).
